Measurements published in patent US10111432B2, “Picolinamide N-oxide compounds with fungicidal activity” (Dow AgroSciences LLC, priority 2016, dated 2018).
Where two headings read alike, the source gives them in different places.

Tests used:
Zymoseptoria tritici = test: Fungicidal activity: leaf blotch of wheat (SEPTTR), disease control on wheat seedlings; format: in vivo; conditions: for pest or weed control at 100 ppm: high volume application; for pest or weed control at 121.5 g/ha: low volume application, 121.5 g/H
Method: Technical grades of materials were dissolved in acetone, which were then mixed with nine volumes of water (H2O) containing 110 ppm Triton X-100. The fungicide solutions were applied onto wheat seedlings using an automated booth sprayer to run-off. All sprayed plants were allowed to air dry prior to further handling. All fungicides were evaluated using the aforementioned method for their activity vs. all target diseases, unless stated otherwise. Wheat leaf blotch and brown rust activity were also evaluated using track spray applications, in which case the fungicides were formulated as EC formulations, containing 0.1% Trycol 5941 in the spray solutions. Wheat plants (variety Yuma) were grown from seed in a greenhouse in 50% mineral soil/50% soil-less Metro mix until the first leaf was fully emerged, with 7-10 seedlings per pot. These plants were inoculated with an aqueous spore suspension of Zymoseptoria tritici either prior to or after fungicide treatments. After inoculation the plants were kept in 100% relative humidity (one day in a dark dew chamber followed by two to three days in a lighted dew chamber at 20° C.) to permit spores to germinate and infect the leaf. The plants were then transferred to a greenhouse set at 20° C. for disease to develop. When disease symptoms were fully expressed on the 1st leaves of untreated plants, infection levels were assessed on a scale of 0 to 100 percent disease severity. Percent disease control was calculated using the ratio of disease severity on treated plants relative to untreated plants.

Puccinia triticina = test: Fungicidal activity: wheat brown rust (PUCCRT), disease control on wheat seedlings; format: in vivo; conditions: for pest or weed control at 100 ppm: high volume application; for pest or weed control at 121.5 g/ha: low volume application, 121.5 g/H
Method: Technical grades of materials were dissolved in acetone, which were then mixed with nine volumes of water (H2O) containing 110 ppm Triton X-100. The fungicide solutions were applied onto wheat seedlings using an automated booth sprayer to run-off. All sprayed plants were allowed to air dry prior to further handling. All fungicides were evaluated using the aforementioned method for their activity vs. all target diseases, unless stated otherwise. Wheat leaf blotch and brown rust activity were also evaluated using track spray applications, in which case the fungicides were formulated as EC formulations, containing 0.1% Trycol 5941 in the spray solutions. Wheat plants (variety Yuma) were grown from seed in a greenhouse in 50% mineral soil/50% soil-less Metro mix until the first leaf was fully emerged, with 7-10 seedlings per pot. These plants were inoculated with an aqueous spore suspension of Puccinia triticina either prior to or after fungicide treatments. After inoculation the plants were kept in a dark dew room at 22° C. with 100% relative humidity overnight to permit spores to germinate and infect the leaf. The plants were then transferred to a greenhouse set at 24° C. for disease to develop. Fungicide formulation, application and disease assessment followed the procedures as described in the Example A. Results of the evaluations are shown below in Table 4.

[1] = 24 h, 1 day protectant, read-out: SEPTTR disease control, 1DP, HV activity at 100 ppm
[2] = 24 h, 1 day protectant, read-out: SEPTTR disease control, 1DP, LV activity at 121.5 g/H
[3] = 72 h, 3 day curative, read-out: SEPTTR disease control, 3DC, HV activity at 100 ppm
[4] = 72 h, 3 day curative, read-out: SEPTTR disease control, 3DC, LV activity at 121.5 g/H
[5] = 24 h, 1 day protectant, read-out: PUCCRT disease control, 1DP, HV activity at 100 ppm
[6] = 24 h, 1 day protectant, read-out: PUCCRT disease control, 1DP, LV activity at 121.5 g/H
[7] = 72 h, 3 day curative, read-out: PUCCRT disease control, 3DC, HV activity at 100 ppm
[8] = 72 h, 3 day curative, read-out: PUCCRT disease control, 3DC, LV activity at 121.5 g/H

Structure (SMILES)	pest or weed control at 100 ppm (Zymoseptoria tritici; [1])	pest or weed control at 121.5 g/ha (Zymoseptoria tritici; [2])	pest or weed control at 100 ppm (Zymoseptoria tritici; [3])	pest or weed control at 121.5 g/ha (Zymoseptoria tritici; [4])	pest or weed control at 100 ppm (Puccinia triticina; [5])	pest or weed control at 121.5 g/ha (Puccinia triticina; [6])	pest or weed control at 100 ppm (Puccinia triticina; [7])	pest or weed control at 121.5 g/ha (Puccinia triticina; [8])
COc1cc(F)ccc1[C@@H](c1ccc(F)cc1)[C@H](C)OC(=O)[C@H](C)NC(=O)c1c(O)c(OC)cc[n+]1[O-] [Compound 24]	> 80%	> 80%	> 80%	> 80%	> 80%	> 80%	> 80%	≤ 80%
COc1cc[n+]([O-])c(C(=O)N[C@@H](C)C(=O)O[C@@H](C)C(c2cccc(C)c2)c2cccc(C)c2)c1O [Compound 25]	> 80%	> 80%	> 80%	> 80%	> 80%	> 80%	> 80%	> 80%
COc1ccc(C(c2ccc(OC)cc2)[C@H](C)OC(=O)[C@H](C)NC(=O)c2c(O)c(OC)cc[n+]2[O-])cc1 [Compound 26]	> 80%		> 80%		> 80%		> 80%	
COc1cc[n+]([O-])c(C(=O)N[C@@H](C)C(=O)O[C@@H](C)[C@H](c2ccc(C)cc2)c2ccc(C)cc2F)c1O [Compound 28]	> 80%	> 80%	> 80%	> 80%	> 80%	> 80%		≤ 80%
COc1cc[n+]([O-])c(C(=O)N[C@@H](C)C(=O)O[C@@H](C)[C@@H](c2ccc(F)cc2)c2ccc(F)cc2C)c1O [Compound 29]	> 80%	> 80%	> 80%	> 80%	> 80%	> 80%	> 80%	≤ 80%
COc1ccccc1C(c1ccccc1OC)[C@H](C)OC(=O)[C@H](C)NC(=O)c1c(O)c(OC)cc[n+]1[O-] [Compound 30]		> 80%		> 80%		≤ 80%		≤ 80%
COc1cc[n+]([O-])c(C(=O)N[C@@H](C)C(=O)O[C@@H](C)[C@@H](c2ccccc2)c2ccc(F)c(C)c2)c1O [Compound 31]	> 80%	> 80%	> 80%	> 80%	> 80%	> 80%	> 80%	≤ 80%
CCOc1cc(F)ccc1C(c1ccc(F)cc1OCC)[C@H](C)OC(=O)[C@H](C)NC(=O)c1c(O)c(OC)cc[n+]1[O-] [Compound 32]		≤ 80%		≤ 80%		≤ 80%		
COc1cc[n+]([O-])c(C(=O)N[C@@H](C)C(=O)O[C@@H](C)[C@H](c2ccccc2)c2ccc(C)cc2F)c1O [Compound 33]		> 80%		≤ 80%		≤ 80%		
COc1cc[n+]([O-])c(C(=O)N[C@@H](C)C(=O)O[C@@H](C)C(c2ccc(Cl)cc2)c2ccc(Cl)cc2)c1O [Compound 34]		> 80%		> 80%		> 80%		
COc1cccc(C(c2cccc(OC)c2)[C@H](C)OC(=O)[C@H](C)NC(=O)c2c(O)c(OC)cc[n+]2[O-])c1 [Compound 36]		≤ 80%				≤ 80%		
COc1cc(Cl)ccc1C(c1ccc(Cl)cc1OC)[C@H](C)OC(=O)[C@H](C)NC(=O)c1c(O)c(OC)cc[n+]1[O-] [Compound 37]		> 80%		≤ 80%		> 80%		
COc1cc[n+]([O-])c(C(=O)N[C@@H](C)C(=O)O[C@@H](C)[C@H](c2ccc(F)cc2)c2ccc(F)cc2C)c1O [Compound 38]		> 80%		> 80%		≤ 80%		
COc1cc[n+]([O-])c(C(=O)N[C@@H](C)C(=O)O[C@@H](C)C(c2ccc(C)cc2)c2ccc(C)cc2)c1O [Compound 39]		> 80%		≤ 80%		≤ 80%		
